Legend:
Experiment in all cases: relative viability (nuclei count vs DMSO), 5 days (fraction); higher = more cells survive
MK-8033 + Bortezomib = compound: Cn1cc(-c2cnc3ccc4ccc(CS(=O)(=O)NCc5ccccn5)cc4c(=O)c3c2)cn1 [MK-8033] + CC(C)C[C@H](NC(=O)[C@H](Cc1ccccc1)NC(=O)c1cnccn1)B(O)O [Bortezomib] (partner 0.002 µM)
How it was run: (§1)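 Cells from lung cancer lines were seeded into 1536-well plates and, one day later, dosed by pin tool. Treatments were either a single drug or a fixed dose of an anchor drug with five library-drug doses (not always all listed) in √10 steps. After 5 days, nuclei were stained in a one-step fixation (final 0.05% Triton X-100, 1% formaldehyde, 1 ug/ml Hoechst) and counted on 4× images, and relative viability is the treated-to-vehicle nuclei ratio, as the median of duplicate plates.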

Irinotecan + Vorinostat = compound: CCc1c2c(nc3ccc(OC(=O)N4CCC(N5CCCCC5)CC4)cc13)-c1cc3c(c(=O)n1C2)COC(=O)[C@]3(O)CC [Irinotecan] + O=C(CCCCCCC(=O)Nc1ccccc1)NO [Vorinostat] (partner 1 µM)
How it was run: as §1

Irinotecan + Decitabine = compound: CCc1c2c(nc3ccc(OC(=O)N4CCC(N5CCCCC5)CC4)cc13)-c1cc3c(c(=O)n1C2)COC(=O)[C@]3(O)CC [Irinotecan] + Nc1ncn([C@H]2C[C@H](O)[C@@H](CO)O2)c(=O)n1 [Decitabine] (partner 2 µM)
How it was run: as §1

RU-SKI 43 + Luminespib = compound: CC[C@@H](C)CNCC(=O)N1CCC2=C([C@@H]1COC3=CC=CC(=C3)C)C=CS2 [RU-SKI 43] + CCNC(=O)c1noc(-c2cc(C(C)C)c(O)cc2O)c1-c1ccc(CN2CCOCC2)cc1 [Luminespib] (partner 0.01 µM)
How it was run: as §1

Row | Cell Line | relative viability (MK-8033 + Bortezomib; first compound 0.02 µM) | relative viability (MK-8033 + Bortezomib; first compound 0.06325 µM) | relative viability (MK-8033 + Bortezomib; first compound 0.2 µM) | relative viability (MK-8033 + Bortezomib; first compound 0.6325 µM) | relative viability (MK-8033 + Bortezomib; first compound 2 µM) | relative viability (Irinotecan + Vorinostat; first compound 2 µM) | relative viability (Irinotecan + Vorinostat; first compound 6.325 µM) | relative viability (Irinotecan + Vorinostat; first compound 20 µM) | relative viability (Irinotecan + Decitabine; first compound 2 µM) | relative viability (Irinotecan + Decitabine; first compound 6.325 µM) | relative viability (Irinotecan + Decitabine; first compound 20 µM) | relative viability (RU-SKI 43 + Luminespib; first compound 0.1 µM) | relative viability (RU-SKI 43 + Luminespib; first compound 0.3162 µM) | relative viability (RU-SKI 43 + Luminespib; first compound 1 µM) | relative viability (RU-SKI 43 + Luminespib; first compound 3.162 µM) | relative viability (RU-SKI 43 + Luminespib; first compound 10 µM) | relative viability (Irinotecan + Vorinostat; first compound 0.6325 µM) | relative viability (Irinotecan + Decitabine; first compound 0.6325 µM)
1 | NCI-H1734 | 1.14 | 0.814 | 0.871 | 0.898 | 0.916 | 0.522 | 0.195 | 0.175 | 0.27 | 0.18 | 0.197 | 0.177 | 0.17 | 0.223 | 0.192 | 0.168 | – | –
2 | NCI-H1755 | 0.987 | 0.834 | 0.933 | 0.849 | 0.835 | 0.7 | 0.448 | 0.385 | 0.503 | 0.427 | 0.491 | 0.5 | 0.3 | 0.515 | 0.472 | 0.301 | 0.606 | 0.58
3 | NCI-H1915 | 1 | 0.911 | 0.975 | 1.03 | 0.952 | 0.329 | 0.168 | 0.147 | 0.189 | 0.134 | 0.126 | 0.837 | 1.44 | 1.02 | 0.869 | 0.895 | 0.307 | 0.216
4 | NCI-H1975 | 0.386 | 0.328 | 0.365 | 0.429 | 0.367 | 0.708 | 0.378 | 0.269 | 0.438 | 0.342 | 0.141 | 0.199 | 0.172 | 0.229 | 0.157 | 0.25 | 0.714 | 0.374
5 | NCI-H1993 | 0.498 | 0.804 | 0.794 | 0.816 | 0.853 | 0.529 | 0.584 | 0.612 | 0.581 | 0.542 | 0.6 | 0.714 | 0.813 | 0.982 | 1.02 | 0.825 | – | –
6 | NCI-H2009 | 1.03 | 1.09 | 0.954 | 0.95 | 0.984 | 0.379 | 0.236 | 0.135 | 0.32 | 0.266 | 0.135 | 0.981 | 1.12 | 0.984 | 1.02 | 1.03 | 0.589 | 0.358
7 | NCI-H2023 | 1.06 | 0.89 | 0.852 | 0.96 | 0.778 | 0.451 | 0.204 | 0.0592 | 0.209 | 0.141 | 0.0603 | 0.919 | 1 | 0.887 | 0.856 | 0.876 | 0.365 | 0.264
8 | NCI-H2085 | 0.956 | 0.941 | 0.98 | 1.08 | 0.963 | 0.756 | 0.583 | 0.564 | 0.391 | 0.38 | 0.382 | 0.398 | 0.481 | 0.591 | 0.431 | 0.407 | 0.753 | 0.536
9 | NCI-H2087 | 0.877 | 0.77 | 0.828 | 0.687 | 0.829 | 0.215 | 0.165 | 0.16 | 0.218 | 0.196 | 0.159 | 0.158 | 0.173 | 0.193 | 0.145 | 0.131 | 0.235 | 0.146
10 | NCI-H2126 | 1.17 | 1.11 | 1.01 | 1.06 | 1.07 | 0.616 | 0.335 | 0.292 | 0.372 | 0.295 | 0.267 | 0.837 | 1.09 | 1.11 | 0.959 | 0.891 | 0.4 | 0.503
11 | NCI-H2347 | 1.1 | 0.999 | 0.846 | 1.03 | 1.08 | 0.631 | 0.514 | 0.548 | 0.626 | 0.599 | 0.547 | 0.443 | 0.717 | 0.639 | 0.357 | 0.35 | 0.435 | 0.652
12 | NCI-H2405 | 1 | 0.961 | 0.932 | 0.771 | 1.03 | 0.956 | 0.307 | 0.195 | 0.667 | 0.411 | 0.255 | 0.639 | 0.474 | 0.543 | 0.736 | 0.486 | – | –
13 | NCI-H3122 | 1.08 | 1.01 | 0.982 | 0.999 | 0.941 | 0.447 | 0.199 | 0.146 | 0.163 | 0.117 | 0.127 | 0.0907 | 0.0845 | 0.103 | 0.0966 | 0.0897 | 0.924 | 0.232
14 | PC-3 [JPC-3] | 0.813 | – | 0.778 | 0.848 | 0.943 | 0.914 | 0.411 | 0.419 | 0.927 | 0.655 | 0.365 | 0.738 | 0.633 | 0.795 | 0.615 | 0.537 | 0.625 | 0.805
15 | PC-14 | 0.898 | 0.742 | 0.816 | 0.809 | 0.772 | 0.392 | 0.217 | 0.102 | 0.182 | 0.12 | 0.111 | 0.146 | 0.143 | 0.126 | 0.157 | 0.159 | 0.477 | 0.184
16 | RERF-LC-KJ | 1.08 | 1.21 | 1.04 | 1.19 | 1.03 | 0.586 | 0.48 | 0.271 | 0.792 | 0.482 | 0.154 | 1.25 | 1.01 | 1.44 | 1.3 | 1 | 0.462 | 0.539
17 | SK-LU-1 | 1.31 | 0.955 | 1.32 | 0.883 | 1.18 | 0.431 | 0.45 | 0.313 | 0.504 | 0.423 | 0.25 | 0.225 | 0.215 | 0.202 | 0.227 | 0.215 | 0.435 | 0.498
18 | SW 1573 | 1.08 | – | 0.902 | 0.988 | 1.05 | 0.605 | 0.209 | 0.0706 | 0.511 | 0.173 | 0.0927 | 0.223 | 0.203 | 0.246 | 0.154 | 0.308 | – | 0.445
